One assay relates to RS4 cells. Description: Cell viability assay, MTS, 72 h, RS4;11. The settings on record: Homo sapiens. The assay is classed as cell-based. The protocol: (§1) Cancer cells from different tissue origins including acute lymphoblastic leukemia (MOLT4 and RS4; 11), small cell lung cancer (NCI-H146 or simply H146), and multiple myeloma (EJM and H929) were incubated with increasing concentrations of Examples 1-21 or ABT-263 for 72 h. Cell viability was measured by tetrazolium-based MTS assay. 5×10^4 to 1×10^5 suspension cells or 3×10^3 to 5×10^3 adherent cells were seeded and treated in 96-well plates for 72 h. The EC50 values of individual agents were calculated with GraphPad Prism.

A further assay deals with MOLT-4 cells. Description: Cell viability assay, MTS, 72 h, MOLT-4. The assay is classed as cell-based. The note with it: Homo sapiens; MOLT-4 cells, 72 h, MTS. The protocol:
as §1

One may read the IC50 as the concentration needed to halve the response being measured. High values mean a need for much substance, low ones inhibition by little substance. Take `Cc1ncsc1-c1ccc([C@H](C)NC(=O)[C@@H]2C[C@@H](O)CN2C(=O)[C@@H](NC(=O)COCCOCCOCCOCCOCC(=O)NCC2(C)CCC(c3ccc(Cl)cc3)=C(CN3CCN(c4ccc(C(=O)NS(=O)(=O)c5ccc(N[C@H](CCN6CCOCC6)CSc6ccccc6)c(S(=O)(=O)C(F)(F)F)c5)cc4)CC3)C2)C(C)(C)C)cc1` (stereo partly drawn) [Compound 60, N^1-((4′-chloro-4-methyl-6-((4-(4-(((4-(((R)-4-morpholino-1-(phenylthio)butan-2-yl)amino)-3-((trifluoromethyl)sulfonyl)phenyl)sulfonyl)carbamoyl)phenyl)piperazin-1-yl)methyl)-2,3,4,5-tetrahydro-[1,1′-biphenyl]-4-yl)methyl)-N^17—((S)-1-((2S,4R)-4-hydroxy-2-(((S)-1-(4-(4-methylthiazol-5-yl)phenyl)ethyl)carbamoyl)pyrrolidin-1-yl)-3,3-dimethyl-1-oxobutan-2-yl)-3,6,9,12,15-pentaoxaheptadecanediamide]: the IC50 amounted to 758 nM with RS4 cells and 1410 nM with MOLT-4 cells.
The corresponding values for `CC1(CNC(=O)CCCCCNc2cccc3c2C(=O)N(C2CCC(=O)NC2=O)C3=O)CCC(c2ccc(Cl)cc2)=C(CN2CCN(c3ccc(C(=O)NS(=O)(=O)c4ccc(N[C@H](CCN5CCOCC5)CSc5ccccc5)c(S(=O)(=O)C(F)(F)F)c4)cc3)CC2)C1` (stereo partly drawn) [Compound 62, 4-(4-((4′-chloro-4-((6-((2-(2,6-dioxopiperidin-3-yl)-1,3-dioxoisoindolin-4-yl)amino)hexanamido)methyl)-4-methyl-3,4,5,6-tetrahydro-[1,1′-biphenyl]-2-yl)methyl)piperazin-1-yl)-N-((4-(((R)-4-morpholino-1-(phenylthio)butan-2-yl)amino)-3-((trifluoromethyl)sulfonyl)phenyl)sulfonyl)benzamide] are 33 nM and 36 nM.

The values are drawn from patent US20220169628A1 (University of Florida Research Foundation, Incorporated, priority 2019, published 2022).
